From patent US8268813B2, “Zilpaterol enantiomer compositions and methods of making and using such compositions” (Intervet International B.V., priority 2006, dated 2012)
pIC50, pKi: −log10 of the molar value. “And” between values parts separate entries of the source, which are not always exact repeats. Equal entries are not always repeated. Where two headings read alike, the source gives them in different places.

Assays:
human μ-opioid receptor = target: T1, human μ-opioid receptor (Homo sapiens, UniProt P35372); assay: Radioligand binding assay, [3H]DAMGO, transfected HEK-293 cell membranes
T1 construct: expressed in transfected cells; host or cells: HEK-293 cells; membrane homogenates
Experimental: This investigation was conducted using a radioligand binding assay.
Non-specific binding was determined in the presence of 10 μM naloxone. Assay volume and format was 250 μl in 96-well plate. The test compound was added as a 10-fold concentrated solution, and the maximum tolerable DMSO concentration was 1%. Following incubation, the samples were filtered rapidly under vacuum through glass fiber filters (GF/B, Packard), pre-soaked with 0.3% PEI, and rinsed several times with ice-cold 50 mM Tris-HCl using a 96-sample cell harvester (Unifilter, Packard). The filters were dried, and counted for radioactivity in a scintillation counter (Topcount, Packard) using a scintillation cocktail (Microscint 0, Packard). The results were expressed as percent inhibition of the control radioligand specific binding.
Specific ligand binding to the receptors is the difference between the total binding and the non-specific binding determined in the presence of an excess of unlabelled ligand. The results are expressed as a percent of control specific binding and as a percent inhibition of control specific binding obtained in the presence of the test compounds.
The IC50 values (concentration causing a half-maximal inhibition of control specific binding) and Hill coefficients (nH) were determined by non-linear regression analysis of the competition curves using Hill equation curve fitting. […] Here, L is the concentration of radioligand in the assay, and KD is the affinity of the radioligand for the receptor.

μ-opioid receptor = assay: Functional ex-vivo isolated organ bioassay (Guinea pig ileum), μ-opioid agonist response; conditions: Applicants believe results may be faulty
[1] = target: β2 adrenergic receptors in guinea pig trachea (Cavia porcellus, UniProt Q8K4Z4)
Experimental: In this experiment, β2 adrenergic receptor agonist activities were functionally determined using a quantitative ex-vivo guinea pig trachea bioassay. […] Following extensive washings and recovery to the initial state, the tissues were exposed to a single or several cumulative concentrations of the test compounds or the same agonist. Each concentration was left in contact with the tissues until a stable response was obtained. […] Assay volume and format was 20 ml organ baths. […] Following washings, the tissues were contracted again with carbachol, and then exposed to increasing concentrations of the test compound or the same agonist. […] If it occurred, a recovery of contraction by the test compound indicated an antagonist activity at the β2 receptors. The parameter measured was the maximal change in tension induced by each compound concentration. […] The agonist efficacy and potency of the test compounds were evaluated respectively in terms of Emax values (maximum response) and EC50 values (concentration producing a half-maximum response). These were determined from the concentration-response curves.

[2] = Table 12, test concentration 1.0E−03 M
[3] = Table 12, test concentration 1.0E−04 M
[4] = Table 12, test concentration 1.0E−05 M
[5] = Table 12, test concentration 1.0E−06 M
[6] = Table 12, test concentration 3.0E−05 M
[7] = Table 12, test concentration 3.0E−06 M
[8] = Table 12, test concentration 3.0E−07 M
[9] = Table 12, test concentration 3.0E−08 M
[10] = calculated from the data in Table 12
[11] = first assay, test concentration 1.0E−05 M
[12] = repeat assay, test concentration 1.0E−03 M
[13] = Table 12, test concentration 3.0E−04 M

Chain of β2 adrenergic receptors in guinea pig trachea (Q8K4Z4 whole entry): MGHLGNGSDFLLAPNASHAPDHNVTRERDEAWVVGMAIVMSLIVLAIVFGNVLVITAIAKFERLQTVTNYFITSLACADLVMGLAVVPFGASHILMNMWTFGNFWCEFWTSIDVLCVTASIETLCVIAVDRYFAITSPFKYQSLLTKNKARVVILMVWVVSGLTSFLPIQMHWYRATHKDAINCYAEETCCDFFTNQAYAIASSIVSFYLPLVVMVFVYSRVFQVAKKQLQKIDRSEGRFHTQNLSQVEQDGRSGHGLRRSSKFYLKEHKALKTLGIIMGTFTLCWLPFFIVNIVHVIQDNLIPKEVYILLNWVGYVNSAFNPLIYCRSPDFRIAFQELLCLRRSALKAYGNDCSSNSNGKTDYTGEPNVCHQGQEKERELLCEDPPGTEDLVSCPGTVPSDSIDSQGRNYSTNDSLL
T1 sequence (P35372 whole entry): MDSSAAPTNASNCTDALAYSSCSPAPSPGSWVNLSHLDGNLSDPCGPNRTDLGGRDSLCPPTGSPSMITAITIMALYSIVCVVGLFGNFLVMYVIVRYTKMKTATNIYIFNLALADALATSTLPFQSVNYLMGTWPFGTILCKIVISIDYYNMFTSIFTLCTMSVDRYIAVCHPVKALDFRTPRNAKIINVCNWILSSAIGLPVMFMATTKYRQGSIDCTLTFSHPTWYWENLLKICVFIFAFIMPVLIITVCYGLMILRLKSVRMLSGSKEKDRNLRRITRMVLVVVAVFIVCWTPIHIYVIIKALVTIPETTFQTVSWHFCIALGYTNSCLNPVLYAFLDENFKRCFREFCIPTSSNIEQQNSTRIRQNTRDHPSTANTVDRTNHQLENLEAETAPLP

SMILES | pIC50 (human μ-opioid receptor) | pKi (human μ-opioid receptor) | binding to the μ-opioid receptor (human μ-opioid receptor) | % of Control Specific Binding, Mean (human μ-opioid receptor; [2]) [%] | % of Control Specific Binding, Run 1 (human μ-opioid receptor; [2]) [%] | % of Control Specific Binding, Run 2 (human μ-opioid receptor; [2]) [%] | % of Control Specific Binding, Mean (human μ-opioid receptor; [3]) [%] | % of Control Specific Binding, Run 1 (human μ-opioid receptor; [3]) [%] | % of Control Specific Binding, Run 2 (human μ-opioid receptor; [3]) [%] | % of Control Specific Binding, Mean (human μ-opioid receptor; [4]) [%] | % of Control Specific Binding, Run 1 (human μ-opioid receptor; [4]) [%] | % of Control Specific Binding, Run 2 (human μ-opioid receptor; [4]) [%] | % of Control Specific Binding, Mean (human μ-opioid receptor; [5]) [%] | % of Control Specific Binding, Run 2 (human μ-opioid receptor; [5]) [%] | % of Control Specific Binding, Mean (human μ-opioid receptor; [6]) [%] | % of Control Specific Binding, Run 1 (human μ-opioid receptor; [6]) [%] | % of Control Specific Binding, Run 2 (human μ-opioid receptor; [6]) [%] | % of Control Specific Binding, Run 1 (human μ-opioid receptor; [7]) [%] | % of Control Specific Binding, Run 2 (human μ-opioid receptor; [7]) [%] | % of Control Specific Binding, Mean (human μ-opioid receptor; [8]) [%] | also measured
CC(C)NC1CCn2c(=O)[nH]c3cccc(c32)C1O (racemic) [Racemic trans, 4,5,6,7-tetrahydro-7-hydroxy-6-(isopropylamino)imidazo[4,5,1-jk]-[1]benzazepin-2(1H)-one, reference compound] | 4.51 | 4.89 | greater binding | 2.9 | 2.4 | 3.3 | 23.7 | 24.5 | 22.9 | 73.7 | 76.7 | 70.8 | 90.0 | 95.1 | 47.5 | 49.3 | 45.6 | 76.2 | 87.4 | 91.2 | % of Control Specific Binding, Run 1 (human μ-opioid receptor; [5]): 84.9%; % of Control Specific Binding, Mean (human μ-opioid receptor; [7]): 81.8%; % of Control Specific Binding, Run 1 (human μ-opioid receptor; [8]): 92.1%; % of Control Specific Binding, Mean (human μ-opioid receptor; [9]): 98.3%; % of Control Specific Binding, Run 1 (human μ-opioid receptor; [9]): 105.8%; % of Control Specific Binding, Run 2 (human μ-opioid receptor; [9]): 90.9%; nH (Hill coefficient) (human μ-opioid receptor; [10]): 0.9; % Inhibition of Control Specific Binding (human μ-opioid receptor; [11]): 24%; % of Control Specific Binding, Mean (human μ-opioid receptor; [11]): 76.2%; % of Control Specific Binding, Run 1 (human μ-opioid receptor; [11]): 76.2%; % of Control Specific Binding, Run 2 (human μ-opioid receptor; [11]): 76.2%; % Inhibition of Control Specific Binding (human μ-opioid receptor; [12]): 98%; % of Control Specific Binding, Mean (human μ-opioid receptor; [12]): 2.2%; % of Control Specific Binding, Run 1 (human μ-opioid receptor; [12]): 1.6%; % of Control Specific Binding, Run 2 (human μ-opioid receptor; [12]): 2.9%
CC(C)N[C@@H]1CCn2c(=O)[nH]c3cccc(c32)[C@H]1O (single isomer, unassigned) [6R,7R enantiomer, 6R,7R zilpaterol enantiomer] | 3.49 | 3.89 | binds weakly | 24.1 | 23.0 | 25.2 | 71.1 | 71.3 | 70.8 | 81.3 | 80.4 | 82.1 | 89.3 | 87.5 | 80.7 | 73.9 | 87.5 | 92.1 | 88.7 | 93.6 | μ-opioid agonist response (μ-opioid receptor): greater μ-opioid agonist response than both the 6S,7S zilpaterol enantiomer and racemic trans zilpaterol; % of Control Specific Binding, Mean (human μ-opioid receptor; [13]): 43.5%; % of Control Specific Binding, Run 2 (human μ-opioid receptor; [13]): 40.4%; % of Control Specific Binding, Run 1 (human μ-opioid receptor; [8]): 94.8%; % of Control Specific Binding, Run 2 (human μ-opioid receptor; [8]): 92.4%; nH (Hill coefficient) (human μ-opioid receptor; [10]): 0.9; pKi (human μ-opioid receptor; calculated from the data in Table 12, Cheng Prusoff): 3.89; % Inhibition of Control Specific Binding (human μ-opioid receptor; [11]): 7%; % of Control Specific Binding, Mean (human μ-opioid receptor; [11]): 92.9%; % of Control Specific Binding, Run 1 (human μ-opioid receptor; [11]): 90.8%; % of Control Specific Binding, Run 2 (human μ-opioid receptor; [11]): 95.0%; % Inhibition of Control Specific Binding (human μ-opioid receptor; [12]): 82%; % of Control Specific Binding, Mean (human μ-opioid receptor; [12]): 17.9%; % of Control Specific Binding, Run 1 (human μ-opioid receptor; [12]): 17.8%; % of Control Specific Binding, Run 2 (human μ-opioid receptor; [12]): 18.0%
CC(C)N[C@H]1CCn2c(=O)[nH]c3cccc(c32)[C@@H]1O [6S,7S enantiomer, 6S,7S zilpaterol enantiomer] | 4.77 | 5.15 | greater binding | 1.2 | 1.4 | 0.9 | 16.4 | 15.9 | 16.9 | 60.2 | 61.1 | 59.2 | 87.7 | 84.6 | 36.1 | 34.9 | 37.2 | 81.0 | 77.2 | 95.3 | % of Control Specific Binding, Run 1 (human μ-opioid receptor; [5]): 90.9%; % of Control Specific Binding, Mean (human μ-opioid receptor; [7]): 79.1%; % of Control Specific Binding, Run 1 (human μ-opioid receptor; [8]): 97.5%; % of Control Specific Binding, Run 2 (human μ-opioid receptor; [8]): 93.2%; % of Control Specific Binding, Mean (human μ-opioid receptor; [9]): 95.8%; % of Control Specific Binding, Run 1 (human μ-opioid receptor; [9]): 93.9%; % of Control Specific Binding, Run 2 (human μ-opioid receptor; [9]): 97.7%; nH (Hill coefficient) (human μ-opioid receptor; [10]): 0.9; % Inhibition of Control Specific Binding (human μ-opioid receptor; [11]): 34%; % of Control Specific Binding, Mean (human μ-opioid receptor; [11]): 66.3%; % of Control Specific Binding, Run 1 (human μ-opioid receptor; [11]): 67.2%; % of Control Specific Binding, Run 2 (human μ-opioid receptor; [11]): 65.4%; % Inhibition of Control Specific Binding (human μ-opioid receptor; [12]): 100%; % of Control Specific Binding, Mean (human μ-opioid receptor; [12]): 0.2%; % of Control Specific Binding, Run 1 (human μ-opioid receptor; [12]): 0.1%; % of Control Specific Binding, Run 2 (human μ-opioid receptor; [12]): 0.4%
C[C@@H](NC(=O)[C@@H](N)Cc1ccc(O)cc1)C(=O)NCC(=O)N(C)[C@@H](Cc1ccccc1)C(=O)NCCO [DAMGO, reference compound] |  |  |  |  |  |  |  |  |  |  |  |  |  |  |  |  |  |  |  |  | nH (Hill coefficient) (human μ-opioid receptor; reference compound, three independent experiments): 1.0 and 0.9
CC(C)(C)NCC(O)c1ccc(O)c(CO)c1 (centres unmarked) [Salbutamol, salbutamol] |  |  |  |  |  |  |  |  |  |  |  |  |  |  |  |  |  |  |  |  | Percent of the Control Response to Salbutamol at 3.0E−07 M, Mean ([1]; Table 6, concentration 3.0E−08 M): 50%; Percent of the Control Response to Salbutamol at 3.0E−07 M, Mean ([1]; Table 6, concentration 3.0E−09 M): 8%; Percent of the Control Response to Salbutamol at 3.0E−07 M, Mean ([1]; Table 6, highest concentration 3.0E−07 M + ICI 118551 3.0E−07 M): 2%; Percent of the Control Response to Salbutamol at 3.0E−07 M, Mean ([1]; Table 7, concentration 3.0E−08 M): 53%; Percent of the Control Response to Salbutamol at 3.0E−07 M, Mean ([1]; Table 7, concentration 3.0E−09 M): 11%; Percent of the Control Response to Salbutamol at 3.0E−07 M, Mean ([1]; Table 7, highest concentration 3.0E−07 M + ICI 118551 3.0E−07 M): 5%
